Laboratory results from PubChem BioAssay (NCI).
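Dose response: 5 concentrations. Exposure: 48 h. Format: 96-well plates. Endpoint: linear interpolation; highest concentration if not reached. Definition used: TGI = concentration required for complete inhibition of growth.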

Columns and labels:
Experiment in all cases: DTP human tumour cell line panel, 48 h
[1] = tested on: M14 melanoma
[2] = tested on: RPMI-8226 leukemia
[3] = tested on: HOP-18 NSCLC
[4] = tested on: HCC-2998 colon
[5] = tested on: COLO 205 colon
[6] = tested on: SK-MEL-5 melanoma
[7] = tested on: HCT-15 colon
[8] = tested on: IGROV1 ovarian
[9] = tested on: HOP-92 NSCLC
[10] = tested on: HT29 colon
[11] = tested on: A498 renal
[12] = tested on: NCI-H226 lung
[13] = tested on: TK-10 renal
[14] = tested on: OVCAR-5 ovarian
[15] = tested on: HOP-62 NSCLC
[16] = tested on: SF-268 CNS
[17] = tested on: KM12 colon
[18] = tested on: ACHN renal
[19] = tested on: CAKI-1 renal
[20] = tested on: OVCAR-4 ovarian
[21] = tested on: EKVX NSCLC
[22] = tested on: NCI-H460 lung
[23] = tested on: M19-MEL melanoma
[24] = tested on: NCI-H522 lung
[25] = tested on: SF-295 CNS
[26] = tested on: NCI-H23 lung
[27] = tested on: KM20L2 colon
[28] = tested on: A549 NSCLC
[29] = tested on: 786-0 renal
[30] = tested on: LOX IMVI melanoma
[31] = tested on: SNB-78 CNS
[32] = tested on: UACC-62 melanoma
[33] = tested on: MALME-3M melanoma
[34] = tested on: OVCAR-8 ovarian
[35] = tested on: UACC-257 melanoma
[36] = tested on: LXFL 529 NSCLC
[37] = tested on: CCRF-CEM leukemia
[38] = tested on: SNB-75 CNS
[39] = tested on: SR leukemia
[40] = tested on: DMS 114 small cell lung
[41] = tested on: XF 498 CNS
[42] = tested on: DLD-1 colon
[43] = tested on: HCT-116 colon
[44] = tested on: UO-31 renal
[45] = tested on: SF-539 CNS
[46] = tested on: RXF 393 renal
[47] = tested on: SNB-19 CNS
[48] = tested on: SK-MEL-28 melanoma
[49] = tested on: SK-MEL-2 melanoma
[50] = tested on: MOLT-4 leukemia
[51] = tested on: SW-620 colon
[52] = tested on: HL-60(TB) leukemia
[53] = tested on: SK-OV-3 ovarian
[54] = tested on: OVCAR-3 ovarian
[55] = tested on: U251 CNS
[56] = tested on: SN12C renal
[57] = tested on: K-562 leukemia
[58] = tested on: DMS 273 small cell lung

Work on `OCCCNc1ccnc2cc(Cl)ccc12` yielded a TGI [1] greater than 100 µM, a TGI [2] greater than 100 µM and a TGI [3] greater than 100 µM. It also gave a TGI [4] greater than 100 µM, a TGI [5] greater than 100 µM and a TGI [6] greater than 100 µM. For the same molecule, the TGI [7] was greater than 100 µM, the TGI [8] was greater than 100 µM and the TGI [9] was greater than 100 µM. It also gave a TGI [10] greater than 100 µM, a TGI [11] greater than 100 µM and a TGI [12] greater than 100 µM. It also gave a TGI [13] greater than 100 µM, a TGI [14] greater than 100 µM and a TGI [15] greater than 100 µM. For the same molecule, the TGI [16] was greater than 100 µM, the TGI [17] was greater than 100 µM and the TGI [18] was greater than 100 µM. For the same molecule, the TGI [19] was greater than 100 µM, the TGI [20] was greater than 100 µM and the TGI [21] was greater than 100 µM. The TGI [22] was greater than 100 µM, the TGI [23] was greater than 100 µM and the TGI [24] was greater than 100 µM. It also gave a TGI [25] greater than 100 µM, a TGI [26] greater than 100 µM and a TGI [27] greater than 100 µM. The TGI [28] was greater than 100 µM, the TGI [29] was greater than 100 µM and the TGI [30] was greater than 100 µM. For the same molecule, the TGI [31] was greater than 100 µM, the TGI [32] was greater than 100 µM and the TGI [33] was greater than 100 µM. The TGI [34] was greater than 100 µM, the TGI [35] was greater than 100 µM and the TGI [36] was greater than 100 µM. It also gave a TGI [37] greater than 100 µM, a TGI [38] greater than 100 µM and a TGI [39] greater than 100 µM. It also gave a TGI [40] greater than 100 µM, a TGI [41] greater than 100 µM and a TGI [42] greater than 100 µM. The TGI [43] was greater than 100 µM, the TGI [44] was greater than 100 µM and the TGI [45] was greater than 100 µM. For the same molecule, the TGI [46] was greater than 100 µM, the TGI [47] was greater than 100 µM and the TGI [48] was greater than 100 µM. The TGI [49] was greater than 100 µM, the TGI [50] was greater than 100 µM and the TGI [51] was greater than 100 µM. The TGI [52] was greater than 100 µM, the TGI [53] was greater than 100 µM and the TGI [54] was greater than 100 µM. For the same molecule, the TGI [55] was greater than 100 µM, the TGI [56] was greater than 100 µM and the TGI [57] was greater than 100 µM.
Work on `COc1cc(O)c2c(c1)O[C@@H]1OCC[C@H]21` yielded a TGI [1] greater than 100 µM, a TGI [2] greater than 100 µM and a TGI [3] greater than 100 µM. It also gave a TGI [4] greater than 100 µM, a TGI [5] greater than 100 µM and a TGI [6] greater than 100 µM. It also gave a TGI [7] greater than 100 µM, a TGI [8] greater than 100 µM and a TGI [9] greater than 100 µM. It also gave a TGI [10] greater than 100 µM, a TGI [11] greater than 100 µM and a TGI [12] greater than 100 µM. It also gave a TGI [13] greater than 100 µM, a TGI [14] greater than 100 µM and a TGI [15] greater than 100 µM. It also gave a TGI [17] greater than 100 µM, a TGI [18] greater than 100 µM and a TGI [20] greater than 100 µM. For the same molecule, the TGI [21] was greater than 100 µM, the TGI [22] was greater than 100 µM and the TGI [58] was greater than 100 µM. It also gave a TGI [25] greater than 100 µM, a TGI [26] greater than 100 µM and a TGI [27] greater than 100 µM. For the same molecule, the TGI [28] was greater than 100 µM, the TGI [29] was greater than 100 µM and the TGI [30] was greater than 100 µM. It also gave a TGI [31] greater than 100 µM, a TGI [32] greater than 100 µM and a TGI [33] greater than 100 µM. The TGI [34] was greater than 100 µM, the TGI [35] was greater than 100 µM and the TGI [36] was greater than 100 µM. It also gave a TGI [37] greater than 100 µM, a TGI [38] greater than 100 µM and a TGI [39] greater than 100 µM. For the same molecule, the TGI [40] was greater than 100 µM, the TGI [41] was greater than 100 µM and the TGI [42] was greater than 100 µM. The TGI [43] was greater than 100 µM, the TGI [44] was greater than 100 µM and the TGI [45] was greater than 100 µM. For the same molecule, the TGI [47] was greater than 100 µM, the TGI [48] was greater than 100 µM and the TGI [49] was greater than 100 µM. The TGI [50] was greater than 100 µM, the TGI [51] was greater than 100 µM and the TGI [52] was greater than 100 µM. It also gave a TGI [53] greater than 100 µM, a TGI [54] greater than 100 µM and a TGI [55] greater than 100 µM. It also gave a TGI [56] greater than 100 µM and a TGI [57] greater than 100 µM.
Work on `O=[N+]([O-])c1cc([N+](=O)[O-])c(/C=C/c2ccc(Cl)c(Cl)c2)cc1/C=C/c1ccc(Cl)c(Cl)c1` yielded a TGI [1] of 52 µM, a TGI [2] of 50.3 µM and a TGI [4] greater than 100 µM. The TGI [5] was 38.6 µM, the TGI [6] was 35.7 µM and the TGI [7] was 58.9 µM. It also gave a TGI [8] of 66.8 µM, a TGI [10] of 63.7 µM and a TGI [11] greater than 100 µM. For the same molecule, the TGI [12] was 66.3 µM, the TGI [13] was greater than 100 µM and the TGI [14] was greater than 100 µM. For the same molecule, the TGI [16] was 75.8 µM, the TGI [17] was 51.1 µM and the TGI [18] was 81.9 µM. The TGI [19] was greater than 100 µM, the TGI [20] was greater than 100 µM and the TGI [21] was greater than 100 µM. It also gave a TGI [22] greater than 100 µM, a TGI [23] of 46.1 µM and a TGI [58] of 96.4 µM. For the same molecule, the TGI [24] was 56.4 µM, the TGI [25] was 81 µM and the TGI [26] was 50.8 µM. The TGI [27] was 81 µM, the TGI [28] was greater than 100 µM and the TGI [29] was 60.3 µM. For the same molecule, the TGI [30] was 61.6 µM, the TGI [31] was greater than 100 µM and the TGI [32] was 79.6 µM. For the same molecule, the TGI [33] was 56.3 µM, the TGI [34] was greater than 100 µM and the TGI [35] was 51.3 µM. For the same molecule, the TGI [36] was 56.1 µM, the TGI [37] was 53.4 µM and the TGI [38] was greater than 100 µM. It also gave a TGI [40] of 68.1 µM, a TGI [44] of 36.1 µM and a TGI [45] of 51.5 µM. It also gave a TGI [46] of 37 µM, a TGI [47] of 66.5 µM and a TGI [48] of 59.2 µM. The TGI [49] was 56.4 µM, the TGI [50] was 62.4 µM and the TGI [51] was 88.6 µM. The TGI [52] was 49.2 µM, the TGI [53] was greater than 100 µM and the TGI [54] was 59.8 µM. For the same molecule, the TGI [55] was greater than 100 µM, the TGI [56] was 43.1 µM and the TGI [57] was 78.8 µM.
For `Nc1nc(N)c(-c2ccccc2)c(C(=O)Nc2ccccc2)n1`, the TGI [1] was greater than 100 µM, the TGI [2] was greater than 100 µM and the TGI [3] was greater than 100 µM. The TGI [5] was greater than 100 µM, the TGI [6] was greater than 100 µM and the TGI [7] was greater than 100 µM. For the same molecule, the TGI [8] was greater than 100 µM, the TGI [9] was greater than 100 µM and the TGI [10] was greater than 100 µM. It also gave a TGI [11] greater than 100 µM, a TGI [12] greater than 100 µM and a TGI [13] greater than 100 µM. The TGI [14] was greater than 100 µM, the TGI [16] was greater than 100 µM and the TGI [17] was greater than 100 µM. It also gave a TGI [18] greater than 100 µM, a TGI [19] greater than 100 µM and a TGI [20] greater than 100 µM. The TGI [21] was greater than 100 µM, the TGI [22] was greater than 100 µM and the TGI [23] was greater than 100 µM. The TGI [24] was greater than 100 µM, the TGI [26] was greater than 100 µM and the TGI [27] was greater than 100 µM. For the same molecule, the TGI [28] was greater than 100 µM, the TGI [29] was greater than 100 µM and the TGI [30] was greater than 100 µM. It also gave a TGI [31] greater than 100 µM, a TGI [32] greater than 100 µM and a TGI [33] greater than 100 µM. For the same molecule, the TGI [34] was greater than 100 µM, the TGI [35] was greater than 100 µM and the TGI [37] was greater than 100 µM. It also gave a TGI [38] greater than 100 µM, a TGI [41] greater than 100 µM and a TGI [42] greater than 100 µM. It also gave a TGI [43] greater than 100 µM, a TGI [44] greater than 100 µM and a TGI [45] greater than 100 µM. It also gave a TGI [46] greater than 100 µM, a TGI [47] greater than 100 µM and a TGI [48] greater than 100 µM. It also gave a TGI [49] greater than 100 µM, a TGI [50] greater than 100 µM and a TGI [51] greater than 100 µM. The TGI [53] was greater than 100 µM, the TGI [54] was greater than 100 µM and the TGI [55] was greater than 100 µM. It also gave a TGI [56] greater than 100 µM and a TGI [57] greater than 100 µM.
